Reference: BindingDB's records for doi:10.1016/j.bmc.2006.12.026 (University of North Carolina At Chapel Hill, 2007)

Target: T1, Nuclear receptor subfamily 1 group I member 2 (Homo sapiens, UniProt O75469)
T1 sequence (O75469 whole entry): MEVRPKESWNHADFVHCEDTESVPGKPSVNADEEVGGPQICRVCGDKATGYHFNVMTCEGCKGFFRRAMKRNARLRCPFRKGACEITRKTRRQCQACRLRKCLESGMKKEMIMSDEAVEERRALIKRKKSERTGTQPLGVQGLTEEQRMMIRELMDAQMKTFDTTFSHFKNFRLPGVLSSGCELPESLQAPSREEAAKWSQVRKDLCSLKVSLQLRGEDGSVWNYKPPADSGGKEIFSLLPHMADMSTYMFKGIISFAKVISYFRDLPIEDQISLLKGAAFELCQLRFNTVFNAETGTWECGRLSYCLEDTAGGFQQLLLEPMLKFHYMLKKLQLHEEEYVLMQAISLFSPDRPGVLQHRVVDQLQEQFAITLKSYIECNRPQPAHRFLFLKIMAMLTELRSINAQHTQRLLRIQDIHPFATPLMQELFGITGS
Assay: Competition Ligand Binding Assay and Transient Transfection Assay
Details: pH 8; 22 °C
Protocol: Polylysine YiO imaging beads (Amersham, GE Healthcare) were coated with histidine-tagged WT PXR LBD. Nonspecific binding sites were blocked with BSA. [N-Methyl-3H]-GW0438X was added to the blocked receptor-bead. The receptor-bead-radioligand mix was added directly to test compounds in 384-well plates. […] Nonspecific binding was determined in the presence of 10 uM GW0438. Data analysis was achieved using a three-parameter fit. The data were calculated as pIC50s. The pEC50 values were obtained from measurement of Luciferase reporter activity in CV-1 cells transfected with full-length hPXR.

SMILES | EC50 | IC50
CCC(O)(c1ccc(N(CC(F)(F)F)S(=O)(=O)c2ccccc2)cc1)C(F)(F)F (stereo not drawn) [N-[4-(1,1,1-trifluoro-2-hydroxybutan-2-yl)phenyl]-N-(2,2,2-trifluoroethyl)benzenesulfonamide] | 0.126 µM | 0.251 µM
O=S(=O)(c1ccccc1)N(CC(F)(F)F)c1ccc(C(O)(C2CCCCC2)C(F)(F)F)cc1 (stereo not drawn) [N-[4-(1-cyclohexyl-2,2,2-trifluoro-1-hydroxyethyl)phenyl]-N-(2,2,2-trifluoroethyl)benzenesulfonamide] | 0.003 µM | –
